# According to patent US7538193B2, “NO-modified hemoglobins and uses therefor” (Duke University, priority 1995, dated 2009):
# Columns and labels:
# [1] = test system: rabbit aortic ring; test: Vessel ring bioassay of SNO-Hb preparations (Examples 4, 13); format: cell-based; conditions: for vasoactivity in vascular ring bioassay: no added thiol (FIG. 4A)
# Method: Details of the vessel ring bioassay have been published (Stamler, J. S., et al., Proc. Natl. Acad. Sci. USA 89:444-448 (1992)). SNO-Hb(FeII)O2 preparations were synthesized with 10-fold excess S-nitrosocysteine (CYSNO) over Hb(FeII)O2 protein (2% borate, 0.5 mM EDTA, ˜15 min incubation), after which desalting was performed across Sephadex G-25 columns. CYSNO was synthesized in 0.5 N HCl, 0.5 mM EDTA and then neutralized (1:1) in 1 M phosphate buffer containing 0.5 mM EDTA. […] The latter was synthesized by treatment of Hb(FeII)O2 with excess ferricyanide, followed by desalting across G-25 columns. SNO-Hb concentrations were verified spectroscopically and the S-nitrosothiol content was determined by the method of Saville (Stamler, J. S., et al., Proc. Natl. Acad. Sci USA 89:444-448 (1992)). The S—NO/tetramer stoichiometry for both SNO-Hb preparations was ˜2. Oxidation of the heme was undetectable by uv-spectrophotometric methods.
# The aortic ring bioassay was performed as described in Example 4. The product of the reaction in which a ratio of 100:1 CYSNO/Hb tetramer was used, contains 2 SNOs as well as NO attached to the heme.
# [2] = test system: rabbit thoracic aortic rings, endothelium removed; test: Oxygen-dependent vessel ring bioassay (Examples 22, 23); format: cell-based
# [3] = test system: substantia nigra, caudate putamen nucleus and parietal cortex of Sprague-Dawley rats; test: O2-dependent local cerebral blood flow in rats (Example 25); format: in vivo, rat; conditions: 1 μmol/kg infused over 3 minutes
# Method: Adult male Sprague-Dawley rats (290-350 g) were anesthetized with sodium pentobarbital (50 mg/kg IP), intubated and ventilated with a small animal respirator (Edco Scientific Inc., Chapel Hill, N.C.) at a rate and tidal volume to maintain normal values of PaCO2 (35-45 mm Hg; PaCO2=systemic arterial blood carbon dioxide tension). The femoral vein and artery were cannulated for infusion of drugs and for continuous monitoring of systemic blood pressure, respectively. Aliquots of arterial blood (200 μl) were drawn periodically to measure blood gas tensions and pH (Instrumentation Laboratory Co., model 1304 blood gas/pH analyzer). The blood was replaced intravenously with three volumes of normal saline. The inspired O2 concentration was varied using premixed gases balanced with nitrogen. The tissue PO2 was measured continuously with polarographic platinum microelectrodes (50 μm O.D. coated with hydrophobic gas permeable Nafion) implanted stereotaxically in both the right and left hippocampus (AP-3.4 mm, ML+2.2 mm), caudate putamen nucleus and substantia nigra (see coordinates below) (Young, W., Stroke, 11:552-564 (1980); Heiss, W. D. and Traupett, H., Stroke, 12:161-167 (1981); Dewhirst, M. W. et al., Cancer Res., 54:3333-3336 (1994); Kerger, H. et al., Am. J. Physiol., 268:H802-H810 (1995)). The PO2 electrodes were polarized to −0.65V against a distant Ag/AgCl reference located on the tail and the current flow was measured using a low-impedance nA-meter. Regional arterial PO2 was adjusted by changing the inspired O2 concentration and atmospheric pressure.
# Polarographic hydrogen (H2)-sensitive microelectrodes were implanted stereotaxically in the substantia nigra (AP −5.3 mm, ML −2.4 mm to the bregma, depth 3.2 mm), caudate putamen nucleus (CPN) (AP +0.8 mm, ML −2.5 mm, depth 5.2 mm) and parietal cortex, for measurement of regional blood flow (Young, W., Stroke, 11:552-564 (1980); Heiss, W. D. and Traupett, H., Stroke, 12:161-167 (1981)). The microelectrodes were made from platinum wire and insulated with epoxy, with the exception of the tip (1 mm) which was coated with Nafion. For placement, the electrodes were mounted on a micromanipulator and the rat's head was immobilized in a Kopf stereotaxic frame. H2-sensitive electrodes were polarized to +400 mV against a distant reference electrode on the tail, and the polarographic current was measured using a low-impedance nA meter during and after the inhalation of hydrogen gas (2.5%) for 1 min. Both the hydrogen clearance curves and voltage for oxygen measurements were made using PC WINDAQ (software, DI-200 AC, Dataq Instruments, Inc., Akron, Ohio). Cerebral blood flow was calculated using the initial slope method (Young, W., Stroke, 11:552-564 (1980); Heiss, W. D. and Traupett, H., Stroke, 12:161-167 (1981)). Regional blood flow responses were monitored for 30 min. prior to and 30 min. following drug administration; hemoglobins were given at time 0.
# The cerebrovascular effects of SNO-Hb were measured in adult male Sprague-Dawley rats using O2 and H2 (blood flow)-sensitive microelectrodes that were placed stereotaxically in several regions of the brain as for Example 24.
# [4] = test system: rat red blood cells; test: S-nitrosation of intraerythrocytic Hb on incubation of red blood cells with RSNOs; format: cell-based; conditions: oxygenated rat red blood cells
# Method: Incubation of rat erythrocytes with S-nitrosocysteine (equimolar to heme (5 mM); phosphate buffer pH 7.4, 25° C.) leads to rapid formation of intracellular SNO-Hb(FeII)O2. […] By 60 min, 3 of the 4 available SH groups of Hb were S-nitrosated (note that rat Hb contains 4 reactive SH groups). […] Spectrum A is that of SNO-Hb isolated from erythrocytes following G-25 chromatography. Treatment of A with dithionite results in reduction of the S—NO moiety, liberating free NO which is autocaptured by deoxy Hb, forming Hb(FeII)NO (note that dithionite simultaneously deoxygenates Hb) (spectrum C). […] The spectrum of Hb(FeII)NO containing 4 NO's per tetramer is shown for comparison (inset, spectrum B).
# At shown intervals, red blood cells were pelleted rapidly by centrifugation, washed three times, lysed in deionized water at 4° C., and the cytosolic fraction subjected to rapid desalting across G-25 columns. Intracellular SNO-Hb was measured by the method of Saville (Gaston, B., et al., (1992); Stamler, J. S., et al., Proc. Natl. Acad. Sci. USA, 89:444-448 (1992)), and confirmed spectroscopically (inset of FIG. 3A) as described above.
# [5] = test system: Sprague-Dawley rat; test: Mean arterial blood pressure in anesthetized rats after femoral vein bolus (Examples 5, 6); format: in vivo; conditions: 2-200 nmol/kg bolus
# From the text: Rats were anesthetized by intraperitoneal injection of pentobarbital and the femoral arteries and veins accessed by local cut down. The artery was then cannulated and the blood pressure monitored continuously using a Viggo Spectramed pressure transducer attached to a Gould recorder. An IBM PC (DATA Q Codas) was used for data acquisition.
# [6] = test system: rat brain (caudatoputamen nucleus); test: Brain blood flow in rats by H2 clearance (Example 12); format: in vivo; conditions: rats breathing 21% O2; 100 or 1000 nmol/kg
# Method: SNO-Hb(FeII)O2, having a SNO/Hb ratio of 2, was prepared (from HbA0) by reaction with S-nitrosothiol. Rats breathing 21% O2 were injected (time 0) with Hbs prepared from HbA0 as indicated in FIG. 10 (open circles, SNO-Hb (100 nmol/kg); filled circles, SNO-Hb (1000 nmol/kg); filled squares, unmodified Hb (1000 nmol/kg)). Three rats were used per experiment. Blood flow was measured in brain using the H2 clearance method; microelectrodes were placed in the brain stereotactically. […] NO group release is promoted by local tissue hypoxia.
# [7] = Decomposition and stability of SNO-Hb forms; format: physicochemical
# Method: Hbs in PBS (0.5 mM EDTA, pH 7.4) were incubated in air (oxy) or in a tonometer previously evacuated of O2 (deoxy). SNO-Hb(FeII)O2 decomposition was determined by the method of Saville (Saville, B., Analyst 83:670-672 (1958)). Spontaneous decomposition of SNO-Hb(FeII) was followed spectrophotometrically by formation of Hb(FeII)NO. Transnitrosation reactions with glutathione were performed by addition of 100-fold excess glutathione over protein (50 μM), immediate processing of the reaction mixture under anaerobic conditions followed by rapid TCA precipitation, and analysis of RSNO in the supernatant. Rates of NO group transfer were too rapid to measure accurately by the standard methods used in this study.
compound,measurement,setting,value
100:1 CYSNO/Hb product: Hb treated with 100:1 S-nitrosocysteine; contains 2 SNOs as well as NO attached to the heme (polynitrosated),potency in aortic ring bioassay,[1]; Hb treated with S-nitrosocysteine 100:1 (FIG. 11),much greater than that of SNO-Hb(FeIII)
"N[C@@H](CCC(=O)N[C@@H](CSN=O)C(=O)NCC(=O)O)C(=O)O [GSNO, S-nitrosoglutathione]","vasorelaxant effects, dependence on PO2","[2]; 95%, 21%, <1% O2 (FIG. 20D)",largely independent of PO2
same,local cerebral blood flow,[3]; 100% O2 + 3 ATA,increased brain perfusion
same,local cerebral blood flow,[3]; 100% O2,increased brain perfusion
same,formation of intraerythrocytic SNO-Hb on treatment of red blood cells,[4],not
"[N]=O [NO, nitric oxide, reference compound]",relaxant activity of free NO,[1]; in the presence of Hb(FeII)O2 or Hb(FeIII),devoid of relaxant activity
N[C@@H](CSN=O)C(=O)O [S-nitrosocysteine],formation of intraerythrocytic SNO-Hb on treatment of red blood cells,[4],very rapid formation of intracellular SNO-Hb(FeII)O2
N[C@@H](CSN=O)C(=O)NCC(=O)O [S-nitrosocysteinylglycine],formation of intraerythrocytic SNO-Hb on treatment of red blood cells,[4],formed
N[C@@H](CCSN=O)C(=O)O [S-nitrosohomocysteine],formation of intraerythrocytic SNO-Hb on treatment of red blood cells,[4],formed
"Hb(FeII)O2: oxyhemoglobin, cell-free, not S-nitrosated [reference compound]",effect of added glutathione on the dose-response,[1]; glutathione 100 ∥M in bioassay chambers (FIG. 4B),did not significantly influence the response
same,vasoactivity in vascular ring bioassay,[1],Contractile effects
same,time for elevations in blood pressure to reverse,[5],10 to 15 min
"Hb(FeIII): methemoglobin, heme iron oxidized to FeIII [reference compound]",vasoactivity in vascular ring bioassay,[1],contractile properties
"SNO-Hb: S-nitrosohemoglobin, hemoglobin S-nitrosylated at thiol groups (cysβ93)",effect on vessel tone,"[2]; 1 μM, rings contracted with phenylephrine under hypoxic conditions (6-7 torr)",relaxations
same,effect of 10 μM glutathione on the response,[2]; 10 μM glutathione in bioassay chambers,potentiates the vasorelaxant response
same,effect on vessel tension,[2]; 95% O2 or 21% O2 (R-structure),contract blood vessels
same,effect on vessel tension,"[2]; <1% O2 (~6 torr), T-structure",does not
same,blood flow to the brain,[6],improves blood flow to the brain
same,local cerebral blood flow,[3]; 21% O2,improved blood flow in all three regions of the brain tested
same,local cerebral blood flow,[3]; 100% O2 + 3 ATA,tended to decrease cerebral flow to similar extents
same,local cerebral blood flow,[3]; 100% O2,significantly attenuated
SNO-deoxyHb: S-nitroso-deoxyhemoglobin synthesized in an anaerobic environment,effect on vessel tension,"[2]; <1% O2 (~6 torr), T-structure",modest effect on baseline tone
same,stability of the isolated preparation,[7]; as synthesized in Example 27,highly unstable
same,rates of RSNO decomposition (and transfer),"[7]; deoxy conformation versus oxy state, PBS pH 7.4",much faster
"deoxyHb: deoxyhemoglobin, not S-nitrosated",effect on vessel tension,"[2]; <1% O2 (~6 torr), T-structure",powerful contractile agent
